{"source": "patent US9125898B2", "about": "“Acetam derivatives for pain relief” (NEUROTUNE AG, priority 2008, dated 2015)", "key": {"[1]": {"test_system": "ddC induced mechanical allodynia in rats", "test": "ddC induced mechanical allodynia in rats, von Frey test", "assay_type": "in vivo, rat", "conditions": "FIG. 4; 15 min after drug administration", "protocol": "Painful peripheral NP may be induced in rats by i.v. administration of 2′,3′-dideoxycytidine (ddC) mimicking what is seen in AIDS patients undergoing antiviral therapy. The ddC test represents a useful and predictive model to study molecules with analgesic potential in human neuropathic states.\nAdult male SD rats (Harlan, Italy, 150-200 g weight) were used. Animals were treated with 25 mg/kg i.v. bolus of 2′,3′-dideoxycytidine, an inhibitor of nucleoside reverse transcriptase used for AIDS therapy that in rodents induces a peripheral neuropathy resulting in allodynic responses to mechanical stimuli. Symptoms severity peaks between 5 to 10 days after administration (Joseph, E. K. et al. —Pain 107 (2004) 147-158). Ten days after administration of ddC, as an intravenous (i.v.) bolus, test substances were administered every day, once a day or b.i.d for 4 weeks. Dosing was withheld in those days in which allodynic tests were performed, and lasted for 24 h and 48 h.\nNT-11624 was dissolved in distilled water and was orally by gavage administered as follows • Group 1: 100 mg/kg b.i.d. for 14 days, followed by 50 mg/kg b.i.d. for 7 days, then 50 mg/kg u.i.d. for 7 days. • Group 2: 50 mg/kg b.i.d. for 28 days.\nPregabalin (3B Pharmachem (Wuhan) International Co.) was dissolved in 1% CMC (carboxymethylcellulose) and orally administered at the dose of 15 mg/kg b.i.d. for 28 days.\nThresholds for mechanical allodynia were measured using an electronic Von Frey apparatus. […] After 4 week drug administration, additional tests were performed beyond the 60 min point, at 4, 8, 24, 48 and 56 h. Results represent the mean (±S.E.M.) of mechanical thresholds expressed in grams.\nDrugs: The following substance was used: NT-11624 (batch No. 0000104580 supplied by Brane Discovery Srl, Gerenzano Italy). NT-11624 was dissolved in distilled water and given p.o. every day, except in those days in which allodynic tests were performed and lasted for 24 h, 48 h and 56 h (i.e. days 1, 3, 7, 10, 14, 21, 28).\nThe following groups of treatment were utilized: • NT-11624 (Group 1): rats received 100 mg/kg b.i.d. of NT-11624 for 14 days, then 50 mg/kg b.i.d. for 7 days, then 50 mg/kg u.i.d. for 7 days. • NT-11624 (Group 2): rats received 50 mg/kg b.i.d. for 28 days • Pregabalin: rats received 15 mg/kg b.i.d. for 28 days\nAdministration volume was 10 ml/kg body weight. Pregabalin [3B Pharmachem (Wuhan), International Co] was dissolved in CMC 1% (carboxymethylcellulose, Sigma-Aldrich, Italy), and orally given as described before. Control rats received vehicle only.\nddC intravenous injection: ddC was dissolved in saline to a concentration of 25 mg/kg (1 ml) and was administered i.v. into the rat tail vein. Control rats were treated with an equal volume of saline i.v.\nThe administration of ddC produces dose-dependent mechanical hypersensitivity and allodynia peaking in severity between 5-10 days after the administration. The test is usually performed at day 10.\nVon Frey test: Each animal was placed in a chamber with a mesh metal floor covered by a plastic dome that enabled the animal to walk freely, but not to jump. The mechanical stimulus was then delivered in the mid-plantar skin of left hind paw using an electronic Von Frey apparatus (37400 Dynamic Plantar Aesthesiometer; Ugo Basile, Comerio, Varese, Italy). The cut-off was fixed at 50 g, while the increasing force rate (ramp duration) was settled at 20 sec. […] At day 28, additional tests were performed at 4, 8, 24, 48 and 56 h after drug administration. Results represent the mean (±S.E.M.) of mechanical thresholds expressed as grams."}, "[2]": {"test_system": "oxaliplatin induced hyperalgesia in the rat", "test": "Oxaliplatin induced hyperalgesia in the rat paw-pressure test", "assay_type": "in vivo", "conditions": "for Paw pressure, pre-test before all treatments: baseline, drug 100 mg/kg p.o.; for Paw pressure, 1a week - 30 min / Paw pressure, 2a week - 30 min / Paw pressure, 3a week - 30 min / Paw pressure, 3a week - 4 h / Paw pressure, 3a week - 8 h / Paw pressure, 3a week - 24 h: drug 100 mg/kg p.o. once daily", "protocol": "Drugs: The following substance was used: NT-13317 (batch No. RR0011-184A1 supplied by Brane Discovery Srl, Gerenzano Italy). NT-13317 was dissolved in DMSO 20%, 10% glucose and administered at the dose of 10, 30 and 100 mg/kg p.o.\nGabapentin (Sigma) was dissolved in 1% CMC (carboxymethylcellulose-Sigma) and orally administered at 100 mg/kg, and dissolved in saline and i.v. administered at 3 mg/kg.\nOxaliplatin model: A peripheral neuropathy was induced in adult rats, by administration of oxaliplatin (Tocris), at 2.4 mg/kg i.p. in saline once a day on days 1, 2, 3, 4, 5, 8, 9, 10, 11, 12, 15, 16, 17, 18, 19 (cumulative dose 36 mg/kg) according to [1].\nIn the first experiment NT-13317 and gabapentin were given chronically at the dose 100 mg/kg po starting 3 days before oxaliplatin and every day for 5 days/week for 3 weeks.\nA dose-response experiment was then performed with NT-13317 (10, 30 and 100 mg/kg po) using the same treatment schedule.\nPaw pressure test: Paw mechanical sensitivity was determined using a Randall & Selitto apparatus exerting a force that increases at constant rate (32 g/s). The stimulus at which rats withdrawn the paw was evaluated before and at different times after treatment. Results represent the mean of mechanical thresholds expressed as grams. To avoid any possible damage to the animal paw the maximum applied force was fixed at 240 g.\nStatistical analysis: All experimental results are given as the mean±S.E.M. An analysis of variance, ANOVA, followed by Fisher's protected least significant difference procedure for post hoc comparison, were used to verify significance between two means of behavioral results. Data were analyzed with the StatView software for the Macintosh (1992). P values≦0.05 were considered significant."}}}
{"smiles": "NCC1(CC(=O)O)CCCCC1", "note": "[GABAPENTIN, Gabapentin, reference compound]", "values": [{"measurement": "Reversal of ddC-induced neuropathy (mechanical threshold, von Frey)", "setting": "[1]", "value": "not"}, {"measurement": "Reduction of mechanical hyperalgesia over three weeks of treatment (in words)", "setting": "[2]; 100 mg/kg p.o. once daily, 5 days/week for 3 weeks", "value": "much lower effect only at the end of the third week"}, {"measurement": "Pharmacodynamic profile at the end of the third week", "setting": "[2]; gabapentin 100 mg/kg p.o.", "value": "sporadic, intermediate efficacy at 30 min"}, {"measurement": "Paw pressure, pre-test before all treatments", "setting": "[2]; oxaliplatin i.p. group", "value": "61.1 ± 4.0", "unit": "g"}, {"measurement": "Paw pressure, 1a week - 30 min", "setting": "[2]; oxaliplatin i.p.", "value": "47.8 ± 5.6", "unit": "g"}, {"measurement": "Paw pressure, 2a week - 30 min", "setting": "[2]; oxaliplatin i.p.", "value": "49.0 ± 5.5", "unit": "g"}, {"measurement": "Paw pressure, 3a week - 30 min", "setting": "[2]; oxaliplatin i.p.", "value": "59.5 ± 5.5", "unit": "g"}, {"measurement": "Paw pressure, 3a week - 4 h", "setting": "[2]; oxaliplatin i.p.", "value": "55.6 ± 4.2", "unit": "g"}, {"measurement": "Paw pressure, 3a week - 8 h", "setting": "[2]; oxaliplatin i.p.", "value": "43.8 ± 6.1", "unit": "g"}, {"measurement": "Paw pressure, 3a week - 24 h", "setting": "[2]; oxaliplatin i.p.", "value": "42.2 ± 5.5", "unit": "g"}, {"measurement": "Paw pressure, pre-test before all treatments", "setting": "[2]; vehicle i.p. (no oxaliplatin) group", "value": "62.7 ± 3.9", "unit": "g"}, {"measurement": "Paw pressure, 1a week - 30 min", "setting": "[2]; vehicle i.p. (no oxaliplatin)", "value": "65.6 ± 4.9", "unit": "g"}, {"measurement": "Paw pressure, 2a week - 30 min", "setting": "[2]; vehicle i.p. (no oxaliplatin)", "value": "73.7 ± 5.2", "unit": "g"}, {"measurement": "Paw pressure, 3a week - 30 min", "setting": "[2]; vehicle i.p. (no oxaliplatin)", "value": "82.3 ± 5.2", "unit": "g"}, {"measurement": "Paw pressure, 3a week - 4 h", "setting": "[2]; vehicle i.p. (no oxaliplatin)", "value": "76.2 ± 4.8", "unit": "g"}, {"measurement": "Paw pressure, 3a week - 8 h", "setting": "[2]; vehicle i.p. (no oxaliplatin)", "value": "78.2 ± 5.6", "unit": "g"}, {"measurement": "Paw pressure, 3a week - 24 h", "setting": "[2]; vehicle i.p. (no oxaliplatin)", "value": "68.7 ± 5.9", "unit": "g"}]}
